Measurements published in patent US9598387B2 (Southern Research Institute, priority 2012, dated 2017).

What was measured:
[1] = molecular target: human D2 dopamine receptors (Homo sapiens (Human), UniProt P14416); experiment: Whole Cell Adenylyl Cyclase Assay, D2; type: cell-based; details: inhibition of forskolin (100 μM) stimulated cAMP, normalized to quinpirole; compound conc ≥10× Ki (per compound); mean ± S.E.M.
Method: (§1) The intrinsic activity of the compounds was evaluated by determining their ability to inhibit forskolin-dependent (100 μM) stimulation of adenylyl cyclase activity using a whole cell assay. A whole cell-cyclic AMP accumulation assay was performed with stably transfected HEK cells expressing human D2 or D3 dopamine receptors. This assay is an adaptation of an earlier published method (Su et al., Cyclic Nucleotide Res. 1976, 2, 257-285). Details regarding this method have been published (Chu, W. et al. Bioorg. Med. Chem. 2005, 13, 77-87; Taylor, M. et al. Synapse 2010, 64, 251-266). Confluent (60-80%) HEK cells transfected with recombinant D2-like dopamine receptors were grown in DMEM/10% fetal calf serum containing geneticin in […] flasks. The endogenous ATP pool is radioactively labeled by preincubating the cells in serum-free DMEM/25 mM Hepes medium containing 2 μCi/mL of [2,8-^3H]-adenine (20-Ci/mmol) in a 5% CO2 incubator at 37° C. for 75 min. The radioactive medium was removed by aspiration. Serum-free DMEM (5.6 mL) containing 25 mM HEPES, pH 7.4, and 0.1 mM of the phosphodiesterase inhibitor isobutylmethylxanthine was added to the flask. A […] aliquot of cells was removed and added to 50 μL of forskolin (100 μM) and 50 μL of test drug or quinpirole in DMEM-HEPES. The cells were incubated for 20 min at 37° C. (vortexing every 5 min). The reaction was terminated by the addition of 0.5 mL of 10% trichloroacetic acid (w/v) containing 1.0 mM unlabeled cyclic AMP as a recovery standard. Both the [^3H]-cyclic AMP and the [^3H]-ATP fractions were collected following separation using columns of Dowex AG-50W-X4 and alumina. The final yield of [^3H]-cyclic AMP is corrected for column recovery of unlabeled cyclic AMP determined spectrophotometrically (OD259). The results are reported as percent conversion of [^3H]-ATP into [^3H]-cyclic AMP. The values for the percent inhibition are reported as the actual percent of inhibition of the ^3H-cAMP accumulation relative to the assay performed in the absence of a test compound, minus basal activity. […] The percent maximum response is the value for the inhibition normalized to the value for the full agonist quinpirole.

[2] = molecular target: T1, human D3 dopamine receptor (Homo sapiens (Human), UniProt P35462); experiment: Whole Cell Adenylyl Cyclase Assay, D3; type: cell-based; details: inhibition of forskolin (100 μM) stimulated cAMP, normalized to quinpirole; compound conc ≥10× Ki (per compound); mean ± S.E.M.
T1 sequence (P35462 whole entry): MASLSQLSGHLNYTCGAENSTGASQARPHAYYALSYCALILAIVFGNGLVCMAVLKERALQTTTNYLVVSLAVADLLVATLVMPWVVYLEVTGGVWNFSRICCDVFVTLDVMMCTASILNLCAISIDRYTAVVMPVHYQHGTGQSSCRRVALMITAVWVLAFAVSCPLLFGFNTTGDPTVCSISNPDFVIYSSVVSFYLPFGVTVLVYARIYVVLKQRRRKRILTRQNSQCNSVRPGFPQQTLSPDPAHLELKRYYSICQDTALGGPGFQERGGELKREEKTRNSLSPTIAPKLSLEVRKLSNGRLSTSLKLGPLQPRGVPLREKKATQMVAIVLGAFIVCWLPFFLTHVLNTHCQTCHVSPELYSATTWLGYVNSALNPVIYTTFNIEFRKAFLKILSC
Method: as §1

[3] = molecular target: human D2-long dopamine receptor (Homo sapiens (Human), UniProt P14416); experiment: Radioligand binding (125I-IABN competition), D2; details: HEK cell membranes expressing human D2-long
human D2-long dopamine receptor, sequence (P14416 whole entry): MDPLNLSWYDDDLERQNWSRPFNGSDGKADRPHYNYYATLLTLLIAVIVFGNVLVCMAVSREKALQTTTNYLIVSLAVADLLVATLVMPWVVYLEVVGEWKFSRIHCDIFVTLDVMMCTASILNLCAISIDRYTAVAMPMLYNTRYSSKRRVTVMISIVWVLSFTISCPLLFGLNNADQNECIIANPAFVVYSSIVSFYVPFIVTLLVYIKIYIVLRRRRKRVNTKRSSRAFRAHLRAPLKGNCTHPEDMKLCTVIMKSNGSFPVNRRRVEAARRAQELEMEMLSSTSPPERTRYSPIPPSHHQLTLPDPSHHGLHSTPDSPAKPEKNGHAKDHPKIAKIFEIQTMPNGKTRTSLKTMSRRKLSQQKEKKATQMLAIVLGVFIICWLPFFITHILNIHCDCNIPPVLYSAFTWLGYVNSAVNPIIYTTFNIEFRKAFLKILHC
Method: (§2) The affinities of the target compounds were determined using radioligand binding experiments. […] Competition curves were modeled for a single site. Data from competition dose-response curves were analyzed using Tablecurve program (Jandel). IC50 values were converted to equilibrium dissociation constants (Ki values) using the Cheng and Prusoff correction.

[4] = molecular target: human D2 receptors (Homo sapiens (Human), UniProt P14416); experiment: D2 Mitogenesis Functional Assay (3H-thymidine uptake, CHOp-D2 cells); type: cell-based
human D2 receptors, sequence (P14416 whole entry): as above
Method: (§3) These assays are based on ^3H-thymidine uptake by cells that are proliferating.
CHO cells expressing human D2 receptors (CHOp-D2 cells) were maintained in alpha-MEM with 10% FCS, 0.05% pen-strep, and 200 μg/mL of G418. […] The cells were incubated at 37° C. in alpha-MEM with 10% FCS. After 48-72 hours, the cells were rinsed twice with serum-free alpha-MEM and incubated for 24 hours at 37° C. Serial dilutions of test compounds were made by the Biomek robotics system in serum-free alpha-MEM. In the functional assay for agonism, the medium was removed and replaced with 100 μL of test compound in serum-free alpha-MEM. In the antagonist assay, the serial dilution of the putative antagonist test compound was added in 90 μL (1.1× of final concentration) and 300 nM quinpirole (30 nM final) was added in […]. After another 24-hour incubation at 37° C., 0.25 μCi of [^3H]thymidine in alpha-MEM supplemented with 10% FCS was added to each well and the plates were further incubated for 2 hours at 37° C. The cells were trypsinized by addition of 10× trypsin solution (1% trypsin in calcium-magnesium-free phosphate-buffered saline) and the plates were filtered and counted as usual. Quinpirole was run as an internal control and dopamine was included for comparative purposes. Butaclamol was run as the standard antagonist.

[5] = molecular target: T1, human D3 dopamine receptor; experiment: Radioligand binding (125I-IABN competition), D3; details: for Ki: 125I-IABN competition, HEK cell membranes expressing human D3; for D2/D3 (D3 selectivity ratio, D2 Ki/D3 Ki): calculated D2 Ki/D3 Ki
Method: as §2

[6] = molecular target: D3R (Homo sapiens (Human), UniProt P35462); experiment: D3 Mitogenesis Functional Assay (3H-thymidine uptake, CHOp-D3 cells); type: cell-based
D3R, sequence (P35462 whole entry): as the sequence (P35462 whole entry) above
Method: as §3
CHO cells expressing human D3 receptors (CHOp-D3 cells) were maintained in alpha-MEM with 10% fetal bovine serum (FBS, Atlas Biologicals), 0.05% pen-strep, and 200 μg/ml of G418. […] The cells are incubated at 37° C. in alpha-MEM with 10% FBS. After 48-72 hours, the cells are rinsed twice with serum-free alpha-MEM and incubated for 24 hours at 37° C. Serial dilutions of test compounds were made by the Biomek robotics system in serum-free alpha-MEM. In the functional assay for agonism, the medium is removed and replaced with 100 μL of test compound in serum-free alpha-MEM. In the antagonist assay, the serial dilution of the putative antagonist test compound was added in 90 μL (1.1× of final concentration) and 300 nM quinpirole (30 nM final) was added in 10 uL. After another 16-hour incubation at 37° C., 0.25 μCi of [^3H]thymidine in alpha-MEM supplemented with 10% FBS was added to each well and the plates were further incubated for 2 hours at 37° C. The cells were trypsinized by addition of 10× trypsin solution (1% trypsin in calcium-magnesium-free phosphate-buffered saline) and the plates were filtered and counted as usual. Quinpirole was run as an internal control and dopamine was included for comparative purposes. Butaclamol was run as the standard antagonist. Data were analyzed using GraphPAD Prism and agonist potency was expressed as EC50 values or % stimulation and antagonist potency was expressed as IC50 values. In these assays, based on the % maximum stimulation as compared to the standard agonist quinpirole (100%) the compounds were classified into following categories: ≧90% full agonist; 70-90% partial to full agonist; <70% partial agonist; 0-20% potential antagonist.

human D2 dopamine receptors, sequence (P14416 whole entry): as the sequence (P14416 whole entry) above

Row | SMILES | D2 Cyclase % Inhibition Normalized [1] [%] | D3 Cyclase % Inhibition Normalized [2] [%] | Ki [3] [nM] | EC50 ([4]; CHOp-D2 cells, stimulation of mitogenesis, read-out: D2 Agonist EC50) [nM] | Emax at 10 µM ([4]; at 10 μM, % maximum stimulation vs quinpirole (100%), read-out: D2 Agonist Emax) [%] | D2 Antagonist Imax ([4]; at 10 μM, inhibition of quinpirole stimulation of mitogenesis) [% at 10 μM] | IC50 ([4]; read-out: D2 Antagonist IC50) [nM] | Ki [5] [nM] | D2/D3 (D3 selectivity ratio, D2 Ki/D3 Ki) [5] | EC50 ([6]; CHOp-D3 cells, stimulation of mitogenesis, read-out: D3 Agonist EC50) [nM] | Emax at 10 µM ([6]; at 10 μM, % maximum stimulation vs quinpirole (100%), read-out: D3 Agonist Emax) [%] | D3 Antagonist Imax ([6]; inhibition of quinpirole stimulation of mitogenesis) [%] | IC50 ([6]; read-out: D3 Antagonist IC50) [nM]
1 | CC(C)(C)c1nc(N2CCN(CCCCNC(=O)N3CCN(c4ccccn4)CC3)CC2)cc(C(F)(F)F)n1 [Compound 29, N-(4-(4-(2-(tert-Butyl)-6-(trifluoromethyl)pyrimidin-4-yl)piperazin-1-yl)butyl)-4-(pyridin-2-yl)piperazine-1-carboxamide] | 21.8 ± 6.6 | 60.9 ± 4.0 | 740 ± 98.3 | > 10000 | < 1 | 99.9 | 232 ± 61 | 8 ± 1.6 | 92 | > 10000 | < 5 | 83.8 | 54.7 ± 9.4
2 | CC(C)(C)c1nc(N2CCN(CCCCNC(=O)N3CCN(c4cccnc4)CC3)CC2)cc(C(F)(F)F)n1 [Compound 30, N-(4-(4-(2-(tert-Butyl)-6-(trifluoromethyl)pyrimidin-4-yl)piperazin-1-yl)butyl)-4-(pyridin-3-yl)piperazine-1-carboxamide] | 6.1 ± 7.5 | 9.1 ± 5.8 | 455 ± 86 | – | – | – | – | 5.9 ± 1.1 | 77 | – | – | – | –
3 | O=C(NCCCCN1CCN(c2ccnc3ccccc23)CC1)N1CCN(c2ccccc2)CC1 [Compound 11, 4-Phenyl-N-(4-(4-(quinolin-4-yl)piperazin-1-yl)butyl)piperazine-1-carboxamide] | 24.4 ± 3.8 | 43.1 ± 9.4 | 1170 ± 128 | – | – | – | – | 9.8 ± 1.2 | 119 | – | – | – | –
4 | CC(C)(C)c1nc(N2CCN(CCCCNC(=O)N3Cc4ccccc4C3)CC2)cc(C(F)(F)F)n1 [Compound 39, N-(4-(4-(2-(tert-Butyl)-6-(trifluoromethyl)pyrimidin-4-yl)piperazin-1-yl)butyl)isoindoline-2-carboxamide] | −24.0 ± 7.0 | 19.8 ± 6.7 | 778 ± 29.5 | – | – | – | – | 12.2 ± 2 | 64 | – | – | – | –
5 | Cc1cc(N2CCN(CCCCNC(=O)N3CCN(c4ccccc4)CC3)CC2)nc(C(F)(F)F)n1 [Compound 7, N-(4-(4-(6-Methyl-2-(trifluoromethyl)pyrimidin-4-yl)piperazin-1-yl)butyl)-4-phenylpiperazine-1-carboxamide] | 30.4 ± 14.6 | 42.4 ± 8.9 | 3880 ± 1220 | – | – | – | – | 41.5 ± 9.1 | 93 | – | – | – | –
6 | Cc1cc(N2CCN(CCCCNC(=O)N3CCC(n4c(=O)[nH]c5ccccc54)CC3)CC2)nc(C(C)(C)C)n1 [Compound 52, N-(4-(4-(2-(tert-Butyl)-6-methylpyrimidin-4-yl)piperazin-1-yl)butyl)-4-(2-oxo-2,3-dihydro-1H-benzo[d]imidazol-1-yl)piperidine-1-carboxamide] | −5.9 ± 5.4 | 11.6 ± 3.1 | 680 ± 135 | – | – | – | – | 7.3 ± 1.6 | 93 | – | – | – | –
7 | N#Cc1cc(N2CCN(CCCCNC(=O)N3CCN(c4ccccc4)CC3)CC2)cc(C(F)(F)F)c1 [Compound 4, N-(4-(4-(3-Cyano-5-(trifluoromethyl)phenyl)piperazin-1-yl)butyl)-4-phenylpiperazine-1-carboxamide] | −9.2 ± 8.3 | 8.2 ± 4.2 | 294 ± 59.6 | – | – | – | – | 4.1 ± 1 | 72 | – | – | – | –
8 | O=C(NCCCCN1CCN(c2ccccc2)CC1)N1CCN(c2ccccc2)CC1 [Compound 1, 4-Phenyl-N-(4-(4-phenylpiperazin-1-yl)butyl)piperazine-1-carboxamide] | 91.4 ± 2.4 | 48.3 ± 9.4 | 124 ± 26.2 | – | – | – | – | 2 ± 0.2 | 62 | – | – | – | –
9 | CC(C)(C)c1nc(N2CCN(CCCCNC(=O)N3CCN(c4cccc(C#N)c4)CC3)CC2)cc(C(F)(F)F)n1 [Compound 26, N-(4-(4-(2-(tert-Butyl)-6-(trifluoromethyl)pyrimidin-4-yl)piperazin-1-yl)butyl)-4-(3-cyanophenyl)piperazine-1-carboxamide] | 34.0 ± 9.1 | 20.0 ± 6.2 | 707 ± 96.2 | – | – | – | – | 8.7 ± 2.2 | 81 | – | – | – | –
